Where “and” joins values, the source holds several entries; their conditions need not be identical. Equal entries are not always repeated. Toxic doses and inconclusive results are not listed. Rule for the calls: active = survival T/C of 150% or more; inactive = T/C below 125% in these data. Numbered stars: 1 amine (or outer) side, 2 acyl side, 3 side chain; on linkers, the order of the positions; unused ones are H or OH. Bridge positions count the residues as written; N and C are the ends. Square brackets hold non-standard residues; d marks the D form. Peptide text beside a SMILES is read from it. I, II: the chains in the order shown. Actinocin(1to9) = Cc1c2oc3c(C)ccc(C(=O)[*:2])c3nc-2c(C(=O)[*:1])c(N)c1=O; X1 = O=C1CC(C(=O)[*:2])N([*:1])C1; NMeV = CN[CH](C(=O)O)C(C)C; Sar = CNCC(=O)O
Tested on: BDF1 mice, B16 melanoma ip, median survival T/C
Assay: NCI In Vivo Anticancer Drug Screen. Data for tumor model B16 Melanoma (intraperitoneal) in B6D2F1 (BDF1) mice
Conditions: endpoint: median survival time, higher = longer survival
How it was run: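 Mice with transplantable tumors; drug vs vehicle groups; endpoint survival or tumor size; value = T/C.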

[1] = dose: 6.25 mg/kg/injection, schedule: Q01DX009 (ip), vehicle: saline with Tween-80
[2] = dose: 12.5 mg/kg/injection, schedule: Q01DX009 (ip), vehicle: saline with Tween-80
[3] = dose: 25.0 mg/kg/injection, schedule: Q01DX009 (ip), vehicle: saline with Tween-80
[4] = dose: 50.0 mg/kg/injection, schedule: Q01DX009 (ip), vehicle: saline with Tween-80
[5] = dose: 200.0 mg/kg/injection, schedule: Q01DX009 (ip), vehicle: saline with Tween-80
[6] = dose: 100.0 mg/kg/injection, schedule: Q01DX009 (ip), vehicle: saline
[7] = dose: 200.0 mg/kg/injection, schedule: Q01DX009 (ip), vehicle: saline
[8] = dose: 400.0 mg/kg/injection, schedule: Q01DX009 (ip), vehicle: saline
[9] = dose: 12.5 mg/kg/injection, schedule: Q01DX009 (ip), vehicle: saline
[10] = dose: 25.0 mg/kg/injection, schedule: Q01DX009 (ip), vehicle: saline
[11] = dose: 50.0 mg/kg/injection, schedule: Q01DX009 (ip), vehicle: saline
[12] = dose: 50.0 mg/kg/injection, schedule: Q01DX009 (ip), vehicle: Klucel (hydroxypropylcellulose) (HPC)
[13] = dose: 100.0 mg/kg/injection, schedule: Q01DX009 (ip), vehicle: Klucel (hydroxypropylcellulose) (HPC)
[14] = dose: 100.0 mg/kg/injection, schedule: Q01DX009 (ip), vehicle: saline with Tween-80
[15] = dose: 400.0 mg/kg/injection, schedule: Q01DX009 (ip), vehicle: saline with Tween-80
[16] = dose: 200.0 mg/kg/injection, schedule: Q01DX009 (ip), vehicle: Klucel (hydroxypropylcellulose) (HPC)
[17] = dose: 400.0 mg/kg/injection, schedule: Q01DX009 (ip), vehicle: Klucel (hydroxypropylcellulose) (HPC)
[18] = dose: 25.0 mg/kg/injection, schedule: Q01DX009 (ip), vehicle: Klucel (hydroxypropylcellulose) (HPC)
[19] = dose: 0.25 mg/kg/injection, schedule: Q01DX009 (ip), vehicle: saline
[20] = dose: 0.5 mg/kg/injection, schedule: Q01DX009 (ip), vehicle: saline

Measured: T/C

OCN(CO)c1nc(N(CO)CO)nc(N(CO)CO)n1
inactive: [1] 97 % of control | [2] 100 % of control | [3] 94 % of control | [4] 92 % of control | [5] 90 % of control

O=C(O)O
inactive: [6] 102 % of control | [7] 97 % of control | [8] 94 % of control

CCCCCCCCCCN1CCC(N2CCCCC2)CC1
inactive: [9] 91 % of control | [10] 93 % of control | [11] 98 % of control | [6] 87 % of control

CC1CCCN(C)C1 (stereo not given)
inactive: [12] 117 % of control | [13] 120 % of control

Cn1nnnc1N/N=C/c1ccccc1
inactive: [14] 93 % of control | [5] 95 % of control | [15] 90 % of control

O=C(Nc1cccc([N+](=O)[O-])c1)c1cc2ccccc2cc1O
inactive: [14] 110 % of control | [5] 107 % of control | [15] 105 % of control

O=C(Nc1cc(C(F)(F)F)ccc1Cl)c1ccccc1
inactive: [13] 94 % of control | [16] 91 % of control | [17] 94 % of control

Nc1nc(Br)c2ccccc2c1-c1ccc([N+](=O)[O-])cc1
inactive: [5] 91 % of control

NNC(=O)c1ccccc1O
inactive: [3] 100 % of control | [4] 95 % of control | [14] 95 % of control

CC(COCc1ccccc1)NCc1ccccc1 (stereo not given)
inactive: [18] 96 % of control | [12] 90 % of control

O=C(Nc1ccccc1F)c1ccc(Cl)c(Cl)c1
inactive: [12] 100 % of control | [13] 87 % of control | [16] 90 % of control | [17] 94 % of control

Clc1ccc2c(c1)C(=P(c1ccccc1)(c1ccccc1)c1ccccc1)c1cc(Cl)cc(Cl)c1-2
inactive: [14] 91 % of control | [5] 89 % of control

O=S(=O)(Nc1ccccc1)c1ccc(C2CC3(Cl)C(Cl)=C(Cl)C2(Cl)C3(Cl)Cl)cc1 (stereo not given)
inactive: [13] 100 % of control | [16] 87 % of control

CC(N)CCC(C)(C)O (stereo not given)
inactive: [3] 102 % of control | [4] 105 % of control | [14] 107 % of control

Cc1c(N)nc(C(CC(N)=O)NCC(N)C(N)=O)nc1C(=O)NC(C(=O)NC(C)C(O)C(C)C(=O)NC(C(=O)NCCc1nc(-c2nc(C(=O)NCCCNC(C)c3ccccc3)cs2)cs1)C(C)O)C(OC1OC(CO)C(O)C(O)C1OC1OC(CO)C(O)C(OC(N)=O)C1O)c1cnc[nH]1 (stereo not given)
inactive: [19] 105 % of control | [20] 102 % of control | dose: 1.0 mg/kg/injection, schedule: Q01DX009 (ip), vehicle: saline 106 % of control | dose: 2.0 mg/kg/injection, schedule: Q01DX009 (ip), vehicle: saline 110 % of control | dose: 4.0 mg/kg/injection, schedule: Q01DX009 (ip), vehicle: saline 108 % of control | dose: 8.0 mg/kg/injection, schedule: Q01DX009 (ip), vehicle: saline 111 % of control

CC[C@@H]1O[C@@H]([C@@H]2CC[C@](O)([C@]3(C)CC[C@@H]([C@@H](C)[C@@]4(O)CC[C@H](C)[C@@H](C[C@@]5(O)O[C@@H]([C@@H](C)[C@H](O)C[C@H]6CC[C@H](C)[C@@H]([C@@H](C)C(=O)O)O6)CC[C@@H]5C)O4)O3)O2)CC[C@@]1(C)O
inactive: dose: 0.12 mg/kg/injection, schedule: Q01DX009 (ip), vehicle: saline 91 % of control | [19] 89 % of control | [20] 96 % of control

COc1ccc(-n2c(=S)[nH]c3ccccc3c2=O)cc1
inactive: [13] 97 % of control | [16] 88 % of control

O=C1C=CC(=O)c2c(O)c(CO)c(CO)c(O)c21
inactive: dose: 0.39 mg/kg/injection, schedule: Q01DX009 (ip), vehicle: Klucel (hydroxypropylcellulose) (HPC) 98 % of control | dose: 0.78 mg/kg/injection, schedule: Q01DX009 (ip), vehicle: Klucel (hydroxypropylcellulose) (HPC) 89 % of control | dose: 1.56 mg/kg/injection, schedule: Q01DX009 (ip), vehicle: Klucel (hydroxypropylcellulose) (HPC) 87 % of control

Cc1c2oc3c(C)ccc(C(=O)NC4C(=O)NC(C(C)C)C(=O)N5CCCC5C(=O)N(C)CC(=O)N(C)C(C(C)C)C(=O)OC4C)c3nc-2c(C(=O)NC2C(=O)NC(C(C)C)C(=O)N3CC(=O)CC3C(=O)N(C)CC(=O)N(C)C(C(C)C)C(=O)OC2C)c(N)c1=O (stereo not given) (I: TV[X1][Sar][NMeV] / II: TVP[Sar][NMeV]; ester I:1-I:C, II:1-II:C; linker I:N-II:N via Actinocin(1to9); configuration not given here)
inactive: dose: 6.2 micrograms/kg/injection, schedule: Q01DX009 (ip), vehicle: water 123 % of control | dose: 9.4 micrograms/kg/injection, schedule: Q04DX003 (ip), vehicle: water 106 % of control | dose: 18.7 micrograms/kg/injection, schedule: Q04DX003 (ip), vehicle: water 123 % of control | dose: 25.0 micrograms/kg/injection, schedule: Q01DX001 (ip), vehicle: water 123 % of control | dose: 50.0 micrograms/kg/injection, schedule: Q01DX001 (ip), vehicle: water 116 % of control | dose: 100.0 micrograms/kg/injection, schedule: Q01DX001 (ip), vehicle: water 106 % of control

OCCCCc1nccc2c1[nH]c1ccccc12
inactive: dose: 12.5 mg/kg/injection, schedule: Q01DX009 (ip), vehicle: Klucel (hydroxypropylcellulose) (HPC) 97 % of control | [18] 95 % of control | [12] 95 % of control | [13] 96 % of control

CNc1ccc(O)cc1
inactive: [1] 92 % of control | [2] 92 % of control | [3] 95 % of control

CCC(C)CC(=O)O (stereo not given)
inactive: [6] 97 % of control | [7] 97 % of control | [8] 93 % of control

C=C(NC(=O)C(=C)NC(=O)c1csc(C2=NC3c4csc(n4)C4NC(=O)c5csc(n5)C(C(C)(O)C(C)O)NC(=O)C5CSC(=N5)/C(=C/C)NC(=O)C(C(C)O)NC(=O)c5csc(n5)C3(CC2)NC(=O)C(C)NC(=O)C(=C)NC(=O)C(=C)NC(=O)C(C(C)C)NC2C=Cc3c(C(C)O)cc(nc3C2O)C(=O)OC4C)n1)C(N)=O (stereo not given)
inactive: dose: 3.12 mg/kg/injection, schedule: Q01DX009 (ip), vehicle: saline 114 % of control | dose: 6.25 mg/kg/injection, schedule: Q01DX009 (ip), vehicle: saline 104 % of control and 117 % of control | [9] 109 % of control and 114 % of control | [10] 110 % of control and 120 % of control | [11] 119 % of control and 120 % of control | [6] 123 % of control

CCCCC(CC)COP(=O)(CC(CC)CCCC)OCC(CC)CCCC (stereo not given)
inactive: [1] 94 % of control | dose: 6.25 mg/kg/injection, schedule: Q04DX003 (ip), vehicle: saline 107 % of control | dose: 8.0 mg/kg/injection, schedule: Q04DX003 (ip), vehicle: saline with Tween-80 102 % of control | dose: 12.0 mg/kg/injection, schedule: Q04DX003 (ip), vehicle: saline with Tween-80 97 % of control | [2] 89 % of control | dose: 18.0 mg/kg/injection, schedule: Q04DX003 (ip), vehicle: saline with Tween-80 100 % of control | [3] 86 % of control | dose: 25.0 mg/kg/injection, schedule: Q04DX003 (ip), vehicle: saline 123 % of control

O=C(O)/C(Cl)=C(/Cl)C(Cl)=C(Cl)Cl
inactive: [3] 95 % of control

CNc1nc(N)nc(Nc2ccc(I)cc2)c1N=O
inactive: [18] 99 % of control | [12] 90 % of control | [4] 94 % of control | [13] 96 % of control | [14] 94 % of control | [5] 94 % of control | [17] 123 % of control

O=C(N/N=C/c1cccc(S(=O)(=O)O)c1)c1ccncc1
inactive: [14] 99 % of control | [5] 100 % of control | [15] 103 % of control
